# Legend:
# RXF 393 = assay: NCI 60 cell line screen; format: cell-based, human; settings: Homo sapiens; RXF 393, Renal Cancer; read-out: Percent growth
# Procedure: (§1) Anticancer profiling over a panel of 60 cancer cell lines was carried out at the National Cancer Institute (NCI), Bethesda, Maryland, USA, https://dtp.cancer.gov/discovery_development/nci-60/methodology.htm (Last visit 22 September 2021), using the standard procedure (detailed procedure is located in the Supplementary Information page 50 s).
# (§2) NCI standard procedure for 60 cell lines assay
# (§3) The human tumor cell lines of the cancer screening panel are grown in RPMI 1640 mediu m containing 5% fetal bovine serum and 2 mM L-glutamine. For a typical screening experiment, cells are inoculated into 96 well microtiter plates in 100 μL at plating densities ranging from 5,000 to 40,000 cells/well depending on the doubling time of individual cell lines. After cell inoculation, the microtiter plates are incubated at 37° C, 5 % CO2, 95 % air and 100 % relative humidity for 24 h prior to addition of experimental drugs.
# (§4) After 24 h, two plates of each cell line are fixed in situ with TCA, to represent a measurement of the cell population for each cell line at the time of drug addition (Tz). Experimental drugs are solubilized in dimethyl sulfoxide at 400-fold the desired final maximum test concentration (10 µM) and stored frozen prior to use. At the time of drug addition, an aliquot of frozen concentrate is thawed and diluted to twice the desired final maximum test concentration with co mp lete medium containing 50 μg/ml gentamicin. Additional four, 10-fold or ½ log serial dilutions are made to provide a total of five drug concentrations plus control. Aliquots of 100 μl of these different drug dilutions are added to the appropriate microtiter wells already containing 100 μl of medium, resulting in the required final drug concentrations.
# (§5) Following drug addition, the plates are incubated for an additional 48 h at 37°C, 5 % CO2, 95 % air, and 100 % relative humidity. For adherent cells, the assay is terminated by the addition of cold TCA. Cells are fixed in situ by the gentle addition of 50 μl of cold 50 % (w/v) TCA (final concentration, 10 % TCA) and incubated for 60 minutes at 4°C. The supernatant is discarded, and the plates are washed five times with tap water and air dried. Sulforhodamine B (SRB) solution (100 μl) at 0.4 % (w/v) in 1 % acetic acid is added to each well, and plates are incubated for 10 minutes at room temperature. After staining, unbound dye is removed by washing five times with 1 % acetic acid and the plates are air dried. Bound stain is subsequently solubilized with 10 mM trizma base, and the absorbance is read on an automated plate reader at a wavelength of 515 nm. For suspension cells, the methodology is the same except that the assay is terminated by fixing settled cells at the bottom of the wells by g ently adding 50 μl of 80 % TCA (final concentration, 16 % TCA). Using the seven absorbance measurements [time zero, (Tz), control growth, (C), and test growth in the presence of drug at the five concentration levels (Ti)], the percentage growth is calculated at each of the drug concentrations levels. Percentage growth inhibition is calculated as:
# (§6) [(Ti-Tz)/(C-Tz)] x 100 for concentrations for which Ti>/=Tz
# (§7) [(Ti-Tz)/Tz] x 100 for concentrations for which Ti<Tz.
# (§8) Three dose response parameters are calculated for each experimental agent. Growth inhibition of […]
# (§9) resulting in a 50% reduction in the net protein increase (as measured by SRB staining) in control cells during the drug incubation. The drug concentration resulting in total growth inhibition […]
# (§10) (TGI) is calculated from Ti = Tz.
# NCI-H226 = assay: NCI 60 cell line screen; format: cell-based, human; settings: Homo sapiens; NCI-H226, Non-Small Cell Lung Cancer; read-out: Percent growth
# Procedure: as §1, §2, §3, §4, §5, §6, §7, §8, §9, §10
# MDA-MB-468 = assay: NCI 60 cell line screen; format: cell-based, human; settings: for activity at 10 µM: Homo sapiens, MDA-MB-468, Breast Cancer, read-out: Percent growth
# Procedure: as §1, §2, §3, §4, §5, §6, §7, §8, §9, §10
# NCI-H522 = assay: NCI 60 cell line screen; format: cell-based, human; settings: Homo sapiens; NCI-H522, Non-Small Cell Lung Cancer; read-out: Percent growth
# Procedure: as §1, §2, §3, §4, §5, §6, §7, §8, §9, §10
# SK-MEL-5 = assay: NCI 60 cell line screen; format: cell-based, human; settings: for activity at 10 µM: Homo sapiens, SK-MEL-5, Melanoma, read-out: Percent growth
# Procedure: as §1, §2, §3, §4, §5, §6, §7, §8, §9, §10
# HOP-92 = assay: NCI 60 cell line screen; format: cell-based, human; settings: for activity at 10 µM: Homo sapiens, HOP-92, Non-Small Cell Lung Cancer, read-out: Percent growth
# Procedure: as §1, §2, §3, §4, §5, §6, §7, §8, §9, §10
# SF-295 = assay: NCI 60 cell line screen; format: cell-based, human; settings: for activity at 10 µM: Homo sapiens, SF-295, CNS-Cancer, read-out: Percent growth
# Procedure: as §1, §2, §3, §4, §5, §6, §7, §8, §9, §10
# NCI-H23 = assay: NCI 60 cell line screen; format: cell-based, human; settings: for activity at 10 µM: Homo sapiens, NCI-H23, Non-Small Cell Lung Cancer, read-out: Percent growth
# Procedure: as §1, §2, §3, §4, §5, §6, §7, §8, §9, §10
# K-562 = assay: NCI 60 cell line screen; format: cell-based, human; settings: Homo sapiens, K562; K-562, Leukemia; read-out: Percent growth
# Procedure: as §1, §2, §3, §4, §5, §6, §7, §8, §9, §10
# SR = assay: NCI 60 cell line screen; format: cell-based, human; settings: for activity at 10 µM: Homo sapiens, Leukemia, read-out: Percent growth
# Procedure: as §1, §2, §3, §4, §5, §6, §7, §8, §9, §10
# NCI/ADR-RES = assay: NCI 60 cell line screen; format: cell-based, human; settings: for activity at 10 µM: Homo sapiens, Ovarian Cancer, read-out: Percent growth
# Procedure: as §1, §2, §3, §4, §5, §6, §7, §8, §9, §10
# U251 = assay: NCI 60 cell line screen; format: cell-based, human; settings: for activity at 10 µM: Homo sapiens, U-251, U251, CNS-Cancer, read-out: Percent growth
# Procedure: as §1, §2, §3, §4, §5, §6, §7, §8, §9, §10
# EKVX = assay: NCI 60 cell line screen; format: cell-based, human; settings: Homo sapiens, Non-Small Cell Lung Cancer, read-out: Percent growth
# Procedure: as §1, §2, §3, §4, §5, §6, §7, §8, §9, §10
# CRAF = CRAF (Homo sapiens, UniProt P04049); assay: Reaction Biology kinase HotSpot enzyme assay; format: biochemical; settings: 1 µM ATP; mean ± S.D. of two separate experiments; read-out: IC50 CRAF
# Sequence of CRAF (P04049 whole entry): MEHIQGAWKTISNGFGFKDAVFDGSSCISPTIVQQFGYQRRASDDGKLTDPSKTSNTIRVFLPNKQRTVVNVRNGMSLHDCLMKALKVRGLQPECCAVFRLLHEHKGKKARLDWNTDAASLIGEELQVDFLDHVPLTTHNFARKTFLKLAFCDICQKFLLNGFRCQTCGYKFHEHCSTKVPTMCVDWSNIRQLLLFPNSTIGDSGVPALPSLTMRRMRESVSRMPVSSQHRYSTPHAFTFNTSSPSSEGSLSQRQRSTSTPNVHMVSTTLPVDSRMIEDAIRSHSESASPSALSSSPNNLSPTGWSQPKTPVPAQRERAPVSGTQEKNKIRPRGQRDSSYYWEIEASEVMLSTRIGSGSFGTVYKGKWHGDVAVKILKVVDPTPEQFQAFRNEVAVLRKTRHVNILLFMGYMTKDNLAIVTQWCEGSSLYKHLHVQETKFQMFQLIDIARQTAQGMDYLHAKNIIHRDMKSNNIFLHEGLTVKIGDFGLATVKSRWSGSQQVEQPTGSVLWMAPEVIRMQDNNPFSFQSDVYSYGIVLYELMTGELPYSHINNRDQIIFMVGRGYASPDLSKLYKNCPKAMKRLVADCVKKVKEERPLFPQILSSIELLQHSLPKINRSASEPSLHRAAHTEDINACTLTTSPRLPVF
# Procedure: (§11) Reaction Biology Corp. Kinase HotSpotTM service http://www.reactionbiology.com was used for screening of compounds IC50 Proﬁler Express for IC50 measurement. Assay protocol: In a ﬁnal reaction volume of 25 μL, kinase (5–10 mU) is incubated with 25 mM Tris pH 7.5, 0.02 mM EGTA, 0.66 mg/mL myelin basic protein, 10 mM magnesium acetate and [γ33P-ATP] (speciﬁc activity approx. 500 cpm/pmol, concentration as required). The reaction is initiated by the addition of the Mg-ATP mix. After incubation for 40 min at room temperature, the reaction is stopped by the addition of 5 μL of a 3% phosphoric acid solution. 10 μL of the reaction is then spotted onto a P30 ﬁltermat, and washed three times for 5 min in 75 mM phosphoric acid and once in methanol prior to drying and scintillation counting.
# BRAF (wild-type) = biological target: T1, BRAF (wild-type) (Homo sapiens, UniProt P15056); assay: Reaction Biology kinase HotSpot enzyme assay; format: biochemical; settings: 1 µM ATP; mean ± S.D. of two separate experiments
# T1 construct: purchased Reaction Biology Corp. (Kinase HotSpot service)
# T1 sequence (P15056 whole entry): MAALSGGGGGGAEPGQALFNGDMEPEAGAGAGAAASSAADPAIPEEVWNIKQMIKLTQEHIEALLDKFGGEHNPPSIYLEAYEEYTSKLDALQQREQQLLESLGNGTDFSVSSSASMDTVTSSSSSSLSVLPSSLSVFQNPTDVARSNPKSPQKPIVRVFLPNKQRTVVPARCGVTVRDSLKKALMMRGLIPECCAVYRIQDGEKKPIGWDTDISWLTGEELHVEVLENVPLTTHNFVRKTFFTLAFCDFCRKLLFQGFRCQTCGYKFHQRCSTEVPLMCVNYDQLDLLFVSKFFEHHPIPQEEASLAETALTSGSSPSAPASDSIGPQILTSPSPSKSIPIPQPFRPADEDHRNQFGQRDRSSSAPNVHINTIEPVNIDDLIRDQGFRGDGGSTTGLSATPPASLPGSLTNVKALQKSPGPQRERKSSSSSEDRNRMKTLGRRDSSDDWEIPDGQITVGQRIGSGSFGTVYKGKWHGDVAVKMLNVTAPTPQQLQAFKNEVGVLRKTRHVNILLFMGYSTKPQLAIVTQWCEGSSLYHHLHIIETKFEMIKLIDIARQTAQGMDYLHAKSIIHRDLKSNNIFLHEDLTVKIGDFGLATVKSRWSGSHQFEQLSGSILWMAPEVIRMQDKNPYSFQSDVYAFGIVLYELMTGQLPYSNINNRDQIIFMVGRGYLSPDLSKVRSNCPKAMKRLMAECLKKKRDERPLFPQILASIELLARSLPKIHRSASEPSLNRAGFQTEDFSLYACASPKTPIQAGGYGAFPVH
# Procedure: The enzymatic assays were performed in Reaction Biology Corp. using the standard protocol at 1 µM ATP and threefold dilution factor (detailed procedure is found in the Supplementary Information page 52 s).
# as §11
SMILES,activity at 10 µM (RXF 393),activity at 10 µM (NCI-H226),activity at 10 µM (MDA-MB-468),activity at 10 µM (NCI-H522),activity at 10 µM (SK-MEL-5),activity at 10 µM (HOP-92),activity at 10 µM (SF-295),activity at 10 µM (NCI-H23),activity at 10 µM (K-562),activity at 10 µM (SR),activity at 10 µM (NCI/ADR-RES),activity at 10 µM (U251),activity at 10 µM (EKVX),IC50 (CRAF),IC50 (BRAF (wild-type)),also measured
"O=S(=O)(NCCNc1nccc(-n2cnc3ccccc32)n1)c1ccccc1 [12a, N-(2-((4-(1H-benzo [d]imidazol-1-yl)pyrimidin-2-yl)amino)ethyl)benzenesulfonamide]",113%,84.6%,94.3%,93.8%,95.8%,73.3%,97.3%,96.4%,84.8%,97.5%,104%,103%,91.2%,2980 ± 210 nM,3250 ± 450 nM,
"O=S(=O)(NCCNc1nccc(-n2cnc3ccccc32)n1)c1ccc(F)cc1 [12b, N-(2-((4-(1H-benzo [d]imidazol-1-yl)pyrimidin-2-yl)amino)ethyl)-4-fluorobenzenesulfonamide]",106%,77.5%,71.6%,71.8%,78%,82.3%,93.6%,95.8%,84%,85.8%,103%,99.5%,85.2%,1340 ± 190 nM,1510 ± 220 nM,
"O=S(=O)(NCCNc1nccc(-n2cnc3ccccc32)n1)c1ccc(Cl)cc1 [12c, N-(2-((4-(1H-benzo [d]imidazol-1-yl)pyrimidin-2-yl)amino)ethyl)-4-chlorobenzenesulfonamide]",117%,91.1%,101%,92.1%,99.4%,90.2%,96.7%,101%,97.6%,96.3%,97.8%,102%,92.2%,1490 ± 230 nM,1380 ± 170 nM,
"O=S(=O)(NCCNc1nccc(-n2cnc3ccccc32)n1)c1ccc(Br)cc1 [12d, N-(2-((4-(1H-benzo [d]imidazol-1-yl)pyrimidin-2-yl)amino)ethyl)-4-bromobenzenesulfonamide]",101%,76.5%,84%,87.2%,89.1%,74.2%,96.5%,97.3%,88.4%,75.1%,97.6%,98.6%,83.4%,2100 ± 180 nM,1790 ± 150 nM,
"O=S(=O)(NCCNc1nccc(-n2cnc3ccccc32)n1)c1ccc(C(F)(F)F)cc1 [12e, N-(2-((4-(1H-benzo [d]imidazol-1-yl)pyrimidin-2-yl)amino)ethyl)-4-(trifluoromethyl)benzenesulfonamide]",38.2%,62.7%,26.4%,38.2%,8.48%,54.5%,44.7%,54.5%,40.8%,35.5%,55.9%,42.4%,34.7%,1140 ± 88 nM,1250 ± 95 nM,"percent inhibition (MDA-MB-468; MDA-MB-468, NCI-60 heat map analysis): 74%; percent inhibition (SK-MEL-5; SK-MEL-5, NCI-60 heat map analysis): 91%; percent inhibition (HOP-92; HOP-92, NCI-60 heat map analysis): around 40%; percent inhibition (SF-295; SF-295, NCI-60 heat map analysis): more than 50%; percent inhibition (NCI-H23; NCI-H23, NCI-60 heat map analysis): around 40%; percent inhibition (SR; NCI-60 heat map analysis): 65%; percent inhibition (NCI/ADR-RES; NCI-60 heat map analysis): 45%; percent inhibition (U251; U251, NCI-60 heat map analysis): more than 50%"
"COc1ccc(S(=O)(=O)NCCNc2nccc(-n3cnc4ccccc43)n2)cc1 [12f, N-(2-((4-(1H-benzo [d]imidazol-1-yl)pyrimidin-2-yl)amino)ethyl)-4-methoxy benzenesulfonamide]",94.6%,80.6%,80.3%,84.4%,92.2%,75.4%,97%,96.9%,93%,89.2%,98.7%,103%,89.2%,1670 ± 210 nM,1980 ± 120 nM,

# — PMC8508980, “Design, Synthesis and Anticancer Profile of New 4-(1H-benzo[d]imidazol-1-yl)pyrimidin-2-amine-Linked Sulfonamide Derivatives with V600EBRAF Inhibitory Effect” (International Journal of Molecular Sciences, 2021)
